Experimental data as given in the NIST ThermoML archive (doi:10.1016/j.jct.2017.07.013).

Test: xn = mol fraction of the nth substance listed
Details: 101.3 kPa, Liquid; for speed of sound: Frequency=3 MHz, Single path-length method; for mass density: Vibrating tube method

CCCC[n+]1ccn(C)c1.O=S(=O)([N-]S(=O)(=O)C(F)(F)F)C(F)(F)F + COC(=O)OC
Details	mass density, 303.15 K [kg/m3]	mass density, 308.15 K [kg/m3]	mass density, 313.15 K [kg/m3]	mass density, 318.15 K [kg/m3]	mass density, 323.15 K [kg/m3]	speed of sound, 303.15 K [m/s]	speed of sound, 308.15 K [m/s]	speed of sound, 313.15 K [m/s]	speed of sound, 318.15 K [m/s]	speed of sound, 323.15 K [m/s]
x1 = 0.0512	1120.1	1113.8	1107.5	1101.2	1094.9	1187	1167.2	1147.5	1127.6	1108.3
x1 = 0.101	1168.9	1163	1157	1151	1145	1196.1	1177.7	1159.4	1141	1123
x1 = 0.1495	1207.1	1201.3	1195.5	1189.8	1184	1203.7	1186.5	1169.4	1152.4	1135.6
x1 = 0.1945	1236.1	1230.5	1224.9	1219.3	1213.7	1209.2	1192.9	1176.8	1160.8	1144.9
x1 = 0.2994	1288.3	1282.9	1277.6	1272.2	1266.9	1215.4	1200.7	1186.2	1171.7	1157.4
x1 = 0.3999	1324.3	1319.1	1313.9	1308.8	1303.6	1217.4	1203.8	1190.3	1176.9	1163.6
x1 = 0.4976	1351.4	1346.3	1341.2	1336.2	1331.1	1217.7	1204.9	1192.1	1179.5	1166.9
x1 = 0.5842	1370.7	1365.6	1360.7	1355.7	1350.7	1217.4	1205	1192.8	1180.6	1168.6
x1 = 0.6886	1389.7	1384.8	1379.8	1374.9	1370.1	1217.4	1205.5	1193.7	1182.1	1170.5
x1 = 0.7475	1399	1394.1	1389.2	1384.3	1379.5	1217.2	1205.6	1194	1182.6	1171.3
x1 = 0.8014	1406.6	1401.8	1396.9	1392.1	1387.3	1217	1205.6	1194.2	1183	1171.8
x1 = 0.889	1417.4	1412.6	1407.8	1403	1398.2	1216.8	1205.6	1194.5	1183.6	1172.7
x1 = 0.9526	1424.2	1419.4	1414.6	1409.9	1405.1	1216.8	1205.7	1194.8	1184	1173.3
x1 = 1	1428.9	1424.1	1419.4	1414.6	1409.9	1216.8	1205.8	1195	1184.2	1173.6
